According to PubChem BioAssay AID1963830 (Molecular Pharmacology Branch, DTP, NCI, 2024):
pIC50: −log10 of the molar value.

Tested on: 922993-354-T-J3-PDC complex spheroid viability
Assay: Anticancer human tumor 922993-354-T-J3-PDC patient-derived endometrial carcinoma cell line growth inhibition [POLQ]
Conditions: for pIC50: curve of first compound; for viability, T/C: stronger effect = lower value
Procedure: Multicellular complex tumor spheroid response to Polymerase (POL) inhibitors (novobiocin, ART-558, RP6685) in combination with a variety of drugs and investigational agents in selected tumor cell lines
The POL inhibitors (novobiocin, ART-558, and RP6685) were evaluated both individually and in combination with standard of care and investigational anticancer small molecules within a complex spheroid model of solid tumors. . Complex spheroids include a stromal component modeled by human endothelial cells (HUVEC) and fibroblasts modeled by human mesenchymal stem cells (MSCs). The concentration ranges selected for each drug and investigational agent were based upon clinically achievable concentrations if the clinical Cmax of the agent was known.
Compounds. The drugs and investigational agents: novobiocin (NSC847541), ART-558 (NSC835418), RP-6685 (NSC848927), peposertib (NSC802822), ceralasertib (NSC780249), elimusertib (NSC800525), camonsertib (NSC841442), AZD-1390 (NSC803789), olaparib (NSC753686), talazoparib (NSC767125), rucaparib (NSC756644), sotorasib (NSC818433), MRTX-1133 (NSC836407), SN-38 (NSC673596), topotecan (NSC609699), epotoside (NSC141540), doxorubicin (NSC123127), gemcitabine (NSC613327), 5-fluorouracil (NSC19893), paclitaxel (NSC125973), vemurafenib (NSC761431), MSA-2 (NSC828583), SN-011 (NSC837082), adavosertib (NSC754352), prexasertib (NSC758257), carboplatin (NSC241240) and oxaliplatin (NSC266046), were obtained from the National Cancer Institute (NCI) Developmental Therapeutics Program Chemical Repository (21). The FDA-approved anticancer drug set is available from the Developmental Therapeutics Program at https://dtp.cancer.gov/organization/dscb/obtaining/. […] The stock solutions were prepared in dimethyl sulfoxide (DMSO, Sigma-Aldrich, St. Louis, MO, cat. D2650), except for the platinum compounds which were prepared in saline (Quality Biological, Gaithersburg, MD, cat. 114-055-101), at 800-fold the tested concentration and stored at -70 degrees C prior to their use. All drugs and investigational agents were tested over a range starting from a high concentration at or near the clinical Cmax and decreasing in half-log increments. If the clinical Cmax for an agent had not been determined, the highest concentration tested was 10 microM, except for SN-38, which was tested at a high concentration of 1 microM.
Cell Culture. All cells were maintained in an incubator at 37 degrees C and 5% CO2 with 95% humidity. The PDC lines were cultured according to standard operating procedures established by the NCI PDMR (https://pdmr.cancer.gov). Table 3 of the manuscript, lists the cell lines along with the number of the three cell types plated to form the mct-spheroids and media for tumor cell growth. After thawing, all PDC lines, except 997537-175-T-J1-PDC and 415267-285-R-J2-PDC, were cultured in Matrigel-coated flasks prepared with a working solution of 1X Ham's F-12 nutrient mix, without supplementation (Thermo Fisher Scientific, cat. 11765054), 100 U/mL penicillin-streptomycin (Thermo Fisher Scientific, cat. 15140122), and 2.5% Matrigel (Corning Inc., Corning, NY, cat. 354248) for the first three passages. The two PDC lines 997537-175-T-J1-PDC and 415267-285-R-J2-PDC were cultured on uncoated flasks. The 857933-349-R-J2-PDC line was cultured in 6C/Colon 1B media containing advanced DMEM/F-12 (Thermo Fisher Scientific, cat. 12634028), 10 mM HEPES (Thermo Fisher Scientific, cat. 15630080), 1X GlutaMAX supplement (Thermo Fisher Scientific, cat. 35050061), 0.1 mg/mL primocin (InvivoGen, San Diego, CA, cat. ant-pm-2), 10% defined fetal bovine serum, heat inactivated (HyClone Laboratories Inc., Logan, UT, cat. SH30070.03HI), 50% L-WRN conditioned media (ATCC, cat. CRL-3276), 1.25 mM N-Acetyl-L-cysteine (Sigma-Aldrich, cat. A9165), 10 mM nicotinamide (Sigma-Aldrich, cat. N0636), 1X B-27 supplement (Thermo Fisher Scientific, cat. 17504044), 1X N-2 supplement (Thermo Fisher Scientific, cat. […]

[1] = second compound 0.0316 µM, first compound 0.0316 µM
[2] = second compound 0.0316 µM, first compound 0.1 µM
[3] = second compound 0.0316 µM, first compound 0.316 µM
[4] = second compound 0.0316 µM, first compound 1 µM
[5] = second compound 0.0316 µM, first compound 3.16 µM
[6] = second compound 0.0316 µM, first compound 10 µM
[7] = second compound 0.1 µM, first compound 0.0316 µM
[8] = second compound 0.1 µM, first compound 0.1 µM
[9] = second compound 0.1 µM, first compound 0.316 µM
[10] = second compound 0.1 µM, first compound 1 µM
[11] = second compound 0.1 µM, first compound 3.16 µM
[12] = second compound 0.1 µM, first compound 10 µM
[13] = second compound 0.316 µM, first compound 0.0316 µM
[14] = second compound 0.316 µM, first compound 0.1 µM
[15] = second compound 0.316 µM, first compound 0.316 µM
[16] = second compound 0.316 µM, first compound 1 µM
[17] = second compound 0.316 µM, first compound 3.16 µM
[18] = second compound 0.316 µM, first compound 10 µM
[19] = second compound 1 µM, first compound 0.0316 µM
[20] = second compound 1 µM, first compound 0.1 µM
[21] = second compound 1 µM, first compound 0.316 µM
[22] = second compound 1 µM, first compound 1 µM
[23] = second compound 1 µM, first compound 3.16 µM
[24] = second compound 1 µM, first compound 10 µM
[25] = second compound 3.16 µM, first compound 0.0316 µM
[26] = second compound 3.16 µM, first compound 0.1 µM
[27] = second compound 3.16 µM, first compound 0.316 µM
[28] = second compound 3.16 µM, first compound 1 µM
[29] = second compound 3.16 µM, first compound 3.16 µM
[30] = second compound 3.16 µM, first compound 10 µM
[31] = second compound 10 µM, first compound 0.0316 µM
[32] = second compound 10 µM, first compound 0.1 µM
[33] = second compound 10 µM, first compound 0.316 µM
[34] = second compound 10 µM, first compound 1 µM
[35] = second compound 10 µM, first compound 3.16 µM
[36] = second compound 10 µM, first compound 10 µM
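Note: spheroids exposed to the agents for one week.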
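Throughout, for viability, T/C: 100% = DMSO vehicle control wells.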

CC1COCCN1c1cc(-c2ccnn2C)c2ccnc(-c3ccn[nH]3)c2n1 (centres undefined) + Cc1cccc(N(C)C(=O)C2C(O)CCN2c2nc(C)cc(C(F)(F)F)c2C#N)c1
pIC50 (second compound 0.0316 µM): 6.78
pIC50 (second compound 0.1 µM): 6.86
pIC50 (second compound 0.316 µM): 6.71
pIC50 (second compound 1 µM): 6.79
pIC50 (second compound 3.16 µM): 6.76
pIC50 (second compound 10 µM): 6.78
viability, T/C [1]: 99.9%
viability, T/C [2]: 63.3%
viability, T/C [3]: 35.3%
viability, T/C [4]: 10.8%
viability, T/C [5]: 10.2%
viability, T/C [6]: 9.85%
viability, T/C [7]: 96.1%
viability, T/C [8]: 58.2%
viability, T/C [9]: 28.4%
viability, T/C [10]: 13.8%
viability, T/C [11]: 8.45%
viability, T/C [12]: 10.4%
viability, T/C [13]: 97.5%
viability, T/C [14]: 75.9%
viability, T/C [15]: 32.9%
viability, T/C [16]: 8.6%
viability, T/C [17]: 9.15%
viability, T/C [18]: 10.9%
viability, T/C [19]: 105%
viability, T/C [20]: 64.6%
viability, T/C [21]: 31.4%
viability, T/C [22]: 11.2%
viability, T/C [23]: 8.14%
viability, T/C [24]: 9.87%
viability, T/C [25]: 87.2%
viability, T/C [26]: 71.5%
viability, T/C [27]: 26.9%
viability, T/C [28]: 10.6%
viability, T/C [29]: 8.05%
viability, T/C [30]: 9.86%
viability, T/C [31]: 92.5%
viability, T/C [32]: 66.5%
viability, T/C [33]: 28.7%
viability, T/C [34]: 14.1%
viability, T/C [35]: 9.35%
viability, T/C [36]: 8.57%

CC1COCCN1c1cc(C2(S(C)(=N)=O)CC2)nc(-c2ccnc3[nH]ccc23)n1 (centres undefined) + Cc1cccc(N(C)C(=O)C2C(O)CCN2c2nc(C)cc(C(F)(F)F)c2C#N)c1
pIC50 (second compound 0.0316 µM): < 5.00
pIC50 (second compound 0.1 µM): < 5.00
pIC50 (second compound 0.316 µM): < 5.00
pIC50 (second compound 1 µM): < 5.00
pIC50 (second compound 3.16 µM): 5.09
pIC50 (second compound 10 µM): 5.31
viability, T/C [1]: 99.8%
viability, T/C [2]: 95.3%
viability, T/C [3]: 95%
viability, T/C [4]: 105%
viability, T/C [5]: 93.3%
viability, T/C [6]: 53%
viability, T/C [7]: 112%
viability, T/C [8]: 95.4%
viability, T/C [9]: 97.1%
viability, T/C [10]: 99.7%
viability, T/C [11]: 82.6%
viability, T/C [12]: 62.9%
viability, T/C [13]: 102%
viability, T/C [14]: 100%
viability, T/C [15]: 104%
viability, T/C [16]: 101%
viability, T/C [17]: 77.5%
viability, T/C [18]: 56.8%
viability, T/C [19]: 96.5%
viability, T/C [20]: 105%
viability, T/C [21]: 99.3%
viability, T/C [22]: 88.9%
viability, T/C [23]: 86.9%
viability, T/C [24]: 56%
viability, T/C [25]: 101%
viability, T/C [26]: 96.8%
viability, T/C [27]: 103%
viability, T/C [28]: 93.1%
viability, T/C [29]: 85.7%
viability, T/C [30]: 42.1%
viability, T/C [31]: 98.5%
viability, T/C [32]: 94%
viability, T/C [33]: 96.8%
viability, T/C [34]: 91.5%
viability, T/C [35]: 71.4%
viability, T/C [36]: 14.7%
